Measured values from PubChem BioAssay (NCI).
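GI50 marks 50% less growth. TGI marks complete inhibition of growth.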

What was measured:
Test in all cases: DTP human tumour cell line panel, 384-well format
[1] = tested on: 786-0 renal
[2] = tested on: A498 renal
[3] = tested on: A549 NSCLC
[4] = tested on: ACHN renal
[5] = tested on: BT-549 breast
[6] = tested on: CAKI-1 renal
[7] = tested on: CCRF-CEM leukemia
[8] = tested on: COLO 205 colon
[9] = tested on: DU-145 prostate
[10] = tested on: EKVX NSCLC
[11] = tested on: HCC-2998 colon
[12] = tested on: HCT-116 colon
[13] = tested on: HCT-15 colon
[14] = tested on: HL-60(TB) leukemia
[15] = tested on: HOP-62 NSCLC
[16] = tested on: HOP-92 NSCLC
[17] = tested on: HS 578T breast
[18] = tested on: HT29 colon
[19] = tested on: IGROV1 ovarian
[20] = tested on: K-562 leukemia
[21] = tested on: KM12 colon
[22] = tested on: LOX IMVI melanoma
[23] = tested on: M14 melanoma
[24] = tested on: MALME-3M melanoma
[25] = tested on: MCF7 breast
[26] = tested on: MDA-MB-231 breast
[27] = tested on: MDA-MB-435 melanoma
[28] = tested on: MDA-MB-468 breast
[29] = tested on: MOLT-4 leukemia
[30] = tested on: NCI-H226 lung
[31] = tested on: NCI-H23 lung
[32] = tested on: NCI-H322M lung
[33] = tested on: NCI-H460 NSCLC
[34] = tested on: NCI-H522 lung
[35] = tested on: NCI/ADR-RES ovarian
[36] = tested on: OVCAR-3 ovarian
[37] = tested on: OVCAR-4 ovarian
[38] = tested on: OVCAR-5 ovarian
[39] = tested on: OVCAR-8 ovarian
[40] = tested on: PC-3 prostate
[41] = tested on: RPMI-8226 leukemia
[42] = tested on: RXF 393 renal
[43] = tested on: SF-268 CNS
[44] = tested on: SF-295 CNS
[45] = tested on: SF-539 CNS
[46] = tested on: SK-MEL-2 melanoma
[47] = tested on: SK-MEL-28 melanoma
[48] = tested on: SK-MEL-5 melanoma
[49] = tested on: SK-OV-3 ovarian
[50] = tested on: SN12C renal
[51] = tested on: SNB-19 CNS
[52] = tested on: SNB-75 CNS
[53] = tested on: SW-620 colon
[54] = tested on: T-47D breast
[55] = tested on: TK-10 renal
[56] = tested on: U251 glioblastoma
[57] = tested on: UACC-257 melanoma
[58] = tested on: UACC-62 melanoma
[59] = tested on: UO-31 renal

Q: How did the GI50 [1] turn out when `C#CC(F)(F)[C@]1(O)CC[C@H]2[C@@H]3CCC4=CC(=O)CCC4=C3[C@@H](c3ccc(C4CC4)cc3)C[C@@]21C` was run?
A: 10.7 nM

Q: What about the TGI [1] of the same molecule?
A: 24 nM

Q: And the GI50 [2]?
A: 13.2 nM

Q: And the TGI [2]?
A: 26.1 nM

Q: What about the GI50 [3] of the same molecule?
A: 39.5 nM

Q: What about the TGI [3] of the same molecule?
A: 190 nM

Q: And the GI50 [4]?
A: < 10 nM

Q: And the TGI [4]?
A: < 10 nM

Q: What about the GI50 [5] of the same molecule?
A: 20.3 nM

Q: And the TGI [5]?
A: 42.2 nM

Q: What about the GI50 [6] of the same molecule?
A: < 10 nM

Q: And the TGI [6]?
A: < 10 nM

Q: What about the GI50 [7] of the same molecule?
A: < 10 nM

Q: What about the TGI [7] of the same molecule?
A: < 10 nM

Q: What about the GI50 [8] of the same molecule?
A: 1320 nM

Q: What about the TGI [8] of the same molecule?
A: 4580 nM

Q: And the GI50 [9]?
A: 1540 nM

Q: What about the TGI [9] of the same molecule?
A: 3180 nM

Q: And the GI50 [10]?
A: < 10 nM

Q: What about the TGI [10] of the same molecule?
A: 10.9 nM

Q: And the GI50 [11]?
A: 23.9 nM

Q: What about the TGI [11] of the same molecule?
A: 50.7 nM

Q: And the GI50 [12]?
A: 1760 nM

Q: What about the TGI [12] of the same molecule?
A: 3350 nM

Q: And the GI50 [13]?
A: 245 nM

Q: What about the TGI [13] of the same molecule?
A: 2300 nM

Q: What about the GI50 [14] of the same molecule?
A: < 10 nM

Q: What about the TGI [14] of the same molecule?
A: < 10 nM

Q: And the GI50 [15]?
A: < 10 nM

Q: And the TGI [15]?
A: 41.1 nM

Q: And the GI50 [16]?
A: < 10 nM

Q: And the TGI [16]?
A: < 10 nM

Q: What about the GI50 [17] of the same molecule?
A: 377 nM

Q: And the TGI [17]?
A: 1510 nM

Q: And the GI50 [18]?
A: 267 nM

Q: And the TGI [18]?
A: 1180 nM

Q: And the GI50 [19]?
A: < 10 nM

Q: And the TGI [19]?
A: < 10 nM

Q: What about the GI50 [20] of the same molecule?
A: 111 nM

Q: And the TGI [20]?
A: 320 nM

Q: What about the GI50 [21] of the same molecule?
A: 12 nM

Q: And the TGI [21]?
A: 25.5 nM

Q: What about the GI50 [22] of the same molecule?
A: < 10 nM

Q: And the TGI [22]?
A: < 10 nM

Q: What about the GI50 [23] of the same molecule?
A: 37.6 nM

Q: And the TGI [23]?
A: 146 nM

Q: And the GI50 [24]?
A: < 10 nM

Q: And the TGI [24]?
A: < 10 nM

Q: And the GI50 [25]?
A: 1480 nM

Q: And the TGI [25]?
A: 7970 nM

Q: What about the GI50 [26] of the same molecule?
A: < 10 nM

Q: And the TGI [26]?
A: < 10 nM

Q: What about the GI50 [27] of the same molecule?
A: 1250 nM

Q: And the TGI [27]?
A: 3510 nM

Q: And the GI50 [28]?
A: < 10 nM

Q: And the TGI [28]?
A: < 10 nM

Q: And the GI50 [29]?
A: 17.4 nM

Q: And the TGI [29]?
A: 31.6 nM

Q: And the GI50 [30]?
A: 218 nM

Q: And the TGI [30]?
A: 2000 nM

Q: And the GI50 [31]?
A: < 10 nM

Q: And the TGI [31]?
A: < 10 nM

Q: And the GI50 [32]?
A: 2480 nM

Q: What about the TGI [32] of the same molecule?
A: 6890 nM

Q: What about the GI50 [33] of the same molecule?
A: 1850 nM

Q: What about the TGI [33] of the same molecule?
A: 3410 nM

Q: What about the GI50 [34] of the same molecule?
A: < 10 nM

Q: And the TGI [34]?
A: < 10 nM

Q: And the GI50 [35]?
A: 12 nM

Q: What about the TGI [35] of the same molecule?
A: 44.8 nM

Q: And the GI50 [36]?
A: < 10 nM

Q: What about the TGI [36] of the same molecule?
A: < 10 nM

Q: What about the GI50 [37] of the same molecule?
A: < 10 nM

Q: What about the TGI [37] of the same molecule?
A: < 10 nM

Q: And the GI50 [38]?
A: 574 nM

Q: And the TGI [38]?
A: 2410 nM

Q: And the GI50 [39]?
A: 61.6 nM

Q: And the TGI [39]?
A: 934 nM

Q: What about the GI50 [40] of the same molecule?
A: 19.6 nM

Q: What about the TGI [40] of the same molecule?
A: 51.8 nM

Q: What about the GI50 [41] of the same molecule?
A: < 10 nM

Q: And the TGI [41]?
A: 18.6 nM

Q: What about the GI50 [42] of the same molecule?
A: < 10 nM

Q: What about the TGI [42] of the same molecule?
A: < 10 nM

Q: And the GI50 [43]?
A: 11.2 nM

Q: What about the TGI [43] of the same molecule?
A: 25.8 nM

Q: And the GI50 [44]?
A: 30.2 nM

Q: And the TGI [44]?
A: 83.4 nM

Q: And the GI50 [45]?
A: 17.2 nM

Q: And the TGI [45]?
A: 32 nM

Q: And the GI50 [46]?
A: 64.6 nM

Q: And the TGI [46]?
A: 244 nM

Q: What about the GI50 [47] of the same molecule?
A: 2030 nM

Q: And the TGI [47]?
A: 4340 nM

Q: What about the GI50 [48] of the same molecule?
A: 1700 nM

Q: What about the TGI [48] of the same molecule?
A: 3100 nM

Q: And the GI50 [49]?
A: 34.2 nM

Q: And the TGI [49]?
A: 111 nM

Q: And the GI50 [50]?
A: 2010 nM

Q: And the TGI [50]?
A: 4060 nM

Q: And the GI50 [51]?
A: 3020 nM

Q: What about the TGI [51] of the same molecule?
A: 8610 nM

Q: What about the GI50 [52] of the same molecule?
A: 14.2 nM

Q: And the TGI [52]?
A: 28.2 nM

Q: What about the GI50 [53] of the same molecule?
A: 334 nM

Q: And the TGI [53]?
A: 1390 nM

Q: What about the GI50 [54] of the same molecule?
A: 80.6 nM

Q: And the TGI [54]?
A: 1770 nM

Q: What about the GI50 [55] of the same molecule?
A: 21.4 nM

Q: And the TGI [55]?
A: 104 nM

Q: What about the GI50 [56] of the same molecule?
A: 97.5 nM

Q: And the TGI [56]?
A: 444 nM

Q: What about the GI50 [57] of the same molecule?
A: 459 nM

Q: And the TGI [57]?
A: 2110 nM

Q: What about the GI50 [58] of the same molecule?
A: 17.6 nM

Q: And the TGI [58]?
A: 32.8 nM

Q: And the GI50 [59]?
A: < 10 nM

Q: What about the TGI [59] of the same molecule?
A: < 10 nM
